Results on four molecules are retold here after ChEMBL document CHEMBL1122552, “Synthesis and biological evaluation of 6-amino-1H-pyrrolo[3,2-c]pyridin-4(5H)-one (3,7-dideazaguanine)” (1984).

SMILES strings stand for the structures. In brackets after ≈: the same amount, converted by molar mass.

In this experiment the test system is Vaccinia virus. The experiment in a line: The minimum inhibitory concentration required to reduce vaccinia virus induced cytopathogenicity in primary rabbit kidney cells by 50%. It is filed as functional. The note with it: Orthopoxvirus vaccinia. A general note: Protection from cytopathic effect is a common read-out in antiviral testing.
`NC(=O)c1ncn([C@@H]2O[C@H](CO)[C@@H](O)[C@H]2O)n1` [RIBAVIRIN] displayed an MIC of 40 µg/mL (≈ 164 µM). Consider `Nc1cc2[nH]cnc2c(=O)[nH]1` [DEZAGUANINE], for which the MIC worked out at 0.1 µg/mL (≈ 0.666 µM).

As to `Nc1cc2[nH]ccc2c(O)n1`, the MIC came out at 400 µg/mL (≈ 2680 µM). The result for `Nc1ncnc2c1ncn2C[C@H](O)CO` [(S)-DHPA] reads 10 µg/mL (≈ 47.8 µM).
